# Patent US11440923B2, “Substituted macrocyclic indole derivatives” (Bayer Aktiengesellschaft, priority 2017, dated 2022)
# Where a name gives a salt, the structure may show the parent alone. Read-outs that look alike come from different tables or passages of the source.
# Columns and labels:
# Assay type in all cases: cell-based
# [1] = test system: SUDHL5 cells; experiment: Induction of caspase-3/7 activity in SUDHL5 cells (Assay 4)
# Procedure, shortened: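 Read-out: Caspase-Glo 3/7 luminescence (1 h, 37 °C) after cells, plated overnight, were treated with compounds for 3 h at 37 °C. Signal corrected for cell-free medium background and expressed relative to DMSO control mean.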
# [2] = test system: SUDHL5 cells; experiment: Induction of cytotoxicity in SUDHL5 cells (Assay 6); conditions: 5 h, CellTiter-Glo, read-out: Cytotox SUDHL5 IC50 (median)
# Procedure, shortened: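 Cells plated overnight at 37 °C, then exposed to compound for 5 h in a humidified incubator at 37 °C. Viability read by CellTiter-Glo luminescence after 15 min shaking at room temperature; cell-free medium served as control.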
# [3] = test system: AMO-1 cells; experiment: Antiproliferation assay AMO-1 (Assay 7)
# Procedure, shortened: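 CTG luminescence readout; cells plated, overnight at 37 °C, then 72 h compound treatment. Time-zero plate read in parallel. IC50 from day 0 and DMSO-normalised signal.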
# [4] = caspase-3/7 induction, 3 h; read-out: Caspase SUDHL5 EC50 (median)
# [5] = 72 h, CellTiter-Glo, read-out: Antiproli AMO-1 IC50 median
# [6] = Homo sapiens, SU-DHL-5, 3 h, caspase-3/7 induction, 3 h; read-out: Caspase SUDHL5 EC50 (median)
# [7] = Homo sapiens, AMO1, 72 h, 72 h, CellTiter-Glo, read-out: Antiproli AMO-1 IC50 median
# [8] = read-out: Caspase SUDHL5 EC50 (median); caspase-3/7 induction, 3 h
# [9] = read-out: Antiproli AMO-1 IC50 median, 72 h, CellTiter-Glo
SMILES,"EC50 [1, 4] [nM]",IC50 [2] [nM],"IC50 [3, 5] [nM]","EC50 [1, 8] [nM]",further results
"CCc1c2c(nn1C)C(CCC1CCOCC1)OCCCCn1c(C(=O)O)c(CCCOc3cccc4cc(F)ccc34)c3ccc(Cl)c-2c31 (single isomer, unassigned; enantiomer 1) [Example 61, 4-chloro-3-ethyl-7-{3-[(6-fluoronaphthalen-1-yl)oxy]propyl}-2-methyl-15-[2-(oxan-4-yl)ethyl]-2,10,11,12,13,15-hexahydropyrazolo[4′,3′:9,10][1,6]oxazacycloundecino[8,7,6-hi]indole-8-carboxylic Acid (Enantiomer 1)]",31,38,22.5,–,–
"CCc1c2c(nn1C)C(CCC(C)(C)O)OCCCCn1c(C(=O)O)c(CCCOc3cccc4cc(F)ccc34)c3ccc(Cl)c-2c31 (single isomer, unassigned; enantiomer 1) [Example 75, (+)-4-chloro-3-ethyl-7-{3-[(6-fluoronaphthalen-1-yl)oxy]propyl}-15-(3-hydroxy-3-methylbutyl)-2-methyl-2,10,11,12,13,15-hexahydropyrazolo[4′,3′:9,10][1,6]oxazacycloundecino[8,7,6-hi]indole-8-carboxylic Acid—N-ethylethanamine Salt (Enantiomer 1)]",9.7,12,13.8,–,–
"CCc1c2c(nn1C)C(C1CC1)OCCCCn1c(C(=O)O)c(CCCOc3cccc4cc(F)ccc34)c3ccc(Cl)c-2c31 (racemic) [Example 38, (rac)-4-chloro-(15-rac)-cyclopropyl-3-ethyl-7-{3-[(6-fluoronaphthalen-1-yl)oxy]propyl}-2-methyl-2,10,11,12,13,15-hexahydropyrazolo[4′,3′:9,10][1,6]oxazacycloundecino[8,7,6-hi]indole-8-carboxylic Acid]",–,–,–,–,"EC50 [1, 6]: 3600 nM; IC50 ([2]; Homo sapiens, SU-DHL-5, 5 h): 1500 nM; IC50 [3, 7]: 5010 nM"
"CCc1c2c(nn1C)C(C(F)(F)F)OCCCCn1c(C(=O)O)c(CCCOc3cccc4ccccc34)c3ccc(Cl)c-2c31 (racemic) [Example 27, (rac)-4-Chloro-3-ethyl-2-methyl-7-{3-[(naphthalen-1-yl)oxy]propyl}-15-(trifluoromethyl)-2,10,11,12,13,15-hexahydropyrazolo[4′,3′:9,10][1,6]oxazacycloundecino[8,7,6-hi]indole-8-carboxylic Acid]",–,–,–,–,"EC50 [1, 6]: 3200 nM; IC50 ([2]; Homo sapiens, SU-DHL-5, 5 h): 1900 nM; IC50 [3, 7]: 12100 nM"
"CCc1c2c(nn1C)C1CCCCN1CCCCn1c(C(=O)O)c(CCCOc3cccc4ccccc34)c3ccc(Cl)c-2c31 (racemic) [Example 102, (rac)-18-chloro-1-ethyl-2-methyl-15-[3-(1-naphthyloxy)propyl]-2,3b,4,5,6,7,9,10,11,12-decahydropyrazolo[3′,4′:8,9]pyrido[1′,2′:6,7][1,6]diazacycloundecino[10,11,1-hi]indole-14-carboxylic Acid]",–,–,–,–,"EC50 [1, 6]: 770 nM; IC50 ([2]; Homo sapiens, SU-DHL-5, 5 h): 800 nM; IC50 [3, 7]: 522 nM"
"CCc1c2c(nn1C)C1CCCN1CCCCn1c(C(=O)O)c(CCCOc3cccc4cc(F)ccc34)c3ccc(Cl)c-2c31 (single isomer, unassigned; (+)) [Example 105, (+)-17-chloro-1-ethyl-14-{3-[(6-fluoronaphthalen-1-yl)oxy]propyl}-2-methyl-3b,4,5,6,8,9,10,11-octahydro-2H-pyrazolo[3′,4′:8,9]pyrrolo[1′,2′:6,7][1,6]diazacycloundecino[10,11,1-hi]indole-13-carboxylic Acid]",330,370,203,–,–
"CCc1c2c(nn1C)C(CCN1CCOCC1)OCCCCn1c(C(=O)O)c(CCCOc3cccc4ccccc34)c3ccc(F)c-2c31 (single isomer, unassigned; enantiomer 1) [Example 11, 3-ethyl-4-fluoro-2-methyl-15-[2-(morpholin-4-yl)ethyl]-7-{3-[(naphthalen-1-yl)oxy]propyl}-2,10,11,12,13,15-hexahydropyrazolo[4′,3′:9,10][1,6]oxazacycloundecino[8,7,6-hi]indole-8-carboxylic Acid—N-ethylethanamine Salt (Enantiomer 1)]",–,95,–,97,"IC50 [3, 9]: 159 nM"
"CCc1c2c(nn1C)C(C1CC1)OCCCCn1c(C(=O)O)c(CCCOc3cccc4cc(F)ccc34)c3ccc(Cl)c-2c31 (single isomer, unassigned; enantiomer 1) [Example 39, (+)-4-chloro-15-cyclopropyl-3-ethyl-7-{3-[(6-fluoronaphthalen-1-yl)oxy]propyl}-2-methyl-2,10,11,12,13,15-hexahydropyrazolo[4′,3′:9,10][1,6]oxazacycloundecino[8,7,6-hi]indole-8-carboxylic Acid—N-ethylethanamine Salt (Enantiomer 1)]",–,1000,–,750,"IC50 ([3]; Homo sapiens, AMO1, 72 h, read-out: Antiproli AMO-1 IC50 median, 72 h, CellTiter-Glo): 4940 nM"
"CCc1c2c(nn1C)C(CCN1CC(F)(F)C1)OCCCCn1c(C(=O)O)c(CCCOc3cccc4cc(F)ccc34)c3ccc(Cl)c-2c31 (single isomer, unassigned; (+)) [Example 78, (+)-4-chloro-15-[2-(3,3-difluoroazetidin-1-yl)ethyl]-3-ethyl-7-{3-[(6-fluoronaphthalen-1-yl)oxy]propyl}-2-methyl-2,10,11,12,13,15-hexahydropyrazolo[4′,3′:9,10][1,6]oxazacycloundecino[8,7,6-hi]indole-8-carboxylic Acid—N-ethylethanamine Salt]",13,14,11.2,–,–
"CCc1c2c(nn1C)C(CCC1CCOCC1)OCCCCn1c(C(=O)O)c(CCCOc3cccc4cc(F)ccc34)c3ccc(Cl)c-2c31 (single isomer, unassigned; enantiomer 1) [Example 63, (+)-4-chloro-3-ethyl-7-{3-[(6-fluoronaphthalen-1-yl)oxy]propyl}-2-methyl-15-[2-(oxan-4-yl)ethyl]-2,10,11,12,13,15-hexahydropyrazolo[4′,3′:9,10][1,6]oxazacycloundecino[8,7,6-hi]indole-8-carboxylic Acid—N-ethylethanamine Salt (Enantiomer 1)]",–,49,–,35,"IC50 [3, 9]: 20 nM"
"CCc1c2c(nn1C)C(C(F)(F)F)OCCCCn1c(C(=O)O)c(CCCOc3cccc4ccccc34)c3ccc(Cl)c-2c31 (single isomer, unassigned; enantiomer 1) [Example 33, (+)-4-chloro-3-ethyl-2-methyl-7-{3-[(naphthalen-1-yl)oxy]propyl}-15-(trifluoromethyl)-2,10,11,12,13,15-hexahydropyrazolo[4′,3′:9,10][1,6]oxazacycloundecino[8,7,6-hi]indole-8-carboxylic Acid—N-ethylethanamine Salt (Enantiomer 1)]",–,1100,–,1800,"IC50 [3, 9]: 6960 nM"
